# Assay results reported in patent US9073963B2 (Universite De Montreal, priority 2003, dated 2015).
# Counter-ions that a name gives are not always drawn. Like-named read-outs stand apart in the source and are kept apart here. Where a SMILES comes first, the peptide text is derived from it. [ ]: non-standard residue; d: D form. dCit = NC(=O)NCCC[C@@H](N)C(=O)O
# Key:
# [1] = tested on: FP receptor; conditions: cited from earlier work
# [2] = tested on: Urotensin; test: Porcine microvascular contraction to urotensin (selectivity); conditions: agonist Urotensin 10^−6M; 0.1 mM THG113
# Procedure: (§1) The preparations were allowed to stabilize for 30 min.
# [3] = tested on: uterine strips obtained from recently-delivered mice; test: Contractility of mouse uterine (myometrial) strips after delivery, organ bath
# Procedure: Myometrial strips (1 cm) were dissected from pregnant mice immediately after delivery (when the uterus is still non-quiescent) and suspended in organ baths containing 10 ml of KREB's buffer bubbled with 90% oxygen. Contractile responses were recorded using pressure transducers connected to a Gould polygraph.
# [4] = tested on: acetylcholine (uncharacterized subtypes); test: Porcine microvascular contraction to acetylcholine (selectivity); conditions: agonist Acetylcholine 10^−6M; 0.1 mM THG113
# Procedure: as §1
# [5] = tested on: C-PAF; conditions: 0.1 mM THG113
# Procedure: To prepare eyecups, a circular incision was made 3-4 mm posterior to ora serrata to remove the […] and vitreous body with minimal handling of the retina. The remaining eyecup was fixed with pins to a wax base in a 20 ml tissue bath containing 20 ml of Kreb's buffer (pH 7.35-7.45) and equilibrated with 21% oxygen and 5% carbon dioxide at 37° C. The preparations were allowed to stabilize for 30 min.
# The outer vessel diameter was recorded with a video camera mounted on a dissecting microscope (Zeiss M 400) and the responses were quantified by a digital image analyzer (Sigma Scan Software, Jandel Scientific, Corte Madera, Calif.). Vascular diameter was recorded before and 5 min following the topical application of the agonist.
# [6] = molecular target: T1, FP receptor (Sus scrofa, UniProt C6GAG8); test: Porcine retinal (ocular) microvascular contraction to PGF2α, eyecup assay; conditions: for % Inhibition: 100 nM PGF2α, compound at 100 μM
# T1 construct: the porcine eyecup model, an ex vivo assay of vascular constriction in porcine retinas; from tissue; host or cells: retinal microvessels in eyecups of newborn pigs pre-treated with ibuprofen
# Procedure: as §1
# Percent (%) inhibition denotes porcine ocular microvessel contraction in response to 100 nM PGF2α in the presence of 0.1 mM peptide relative to that in the absence of the peptide, expressed as percentage.
# [7] = tested on: CD-1 mice; test: Endotoxin (E. coli LPS) model of mouse preterm labor
# Procedure: Timed-pregnant CD-1 mice (mean gestation was 19.2 days) were purchased and at day 17, alzet pumps containing THG113 in saline were surgically implanted on the back of the animals. These pumps continuously deliver the inhibitor at 1 mg/day. E. coli lipopolysaccharide (LPS) (50 μg i. p. twice at 3 h interval) was injected on day 15.
# E. coli LPS (50 μg twice three hours apart, i.p) was administered to CD-1 mice (average weight: 50 g) at gestation day 15. Four hours after LPS was administered, alzet osmotic pumps that delivered 0.1, 0.4 or 0.8 mg/Kg/day of the drug were surgically implanted on the backs of the animals. Normal gestation in this strain is 19.2 days.
# E. coli LPS (50 μg twice three hours apart, i.p) was administered to CD-1 mice at gestation day 15. Alzet osmotic pumps that delivered 0.1 mg/Kg/day of the drug were surgically implanted on the backs of the animals. Normal gestation in this strain is 19.2 days.
# [8] = molecular target: T2, human FP receptor (Homo sapiens, UniProt P43088); test: Specific binding of [125I]-THG113 to FP/293 cells versus parent HEK293 cells; conditions: 10^5 cells, 10^6 cpm, 1 h
# T2 construct: expressed in transfected cells; host or cells: HEK293 (FP/293)
# Procedure: [^125I]-THG113 was produced by labeling tyrosine residue with [^125I] using the lactoperoxidase method (Thorell et al. 1971 Biochim. Biophys. Acta 28, 251(3):363-369). HEK293 cells ectopically expressing cloned human FP receptor, FP/293, (10^5) were incubated with [^125I]-THG113 (10^6 cpm) for 1 h; bound and unbound ligands were separated by filtration on glass fibre filters. The radioactivity on the filters was counted by scintillation spectrophotometry. For a detailed method of ligand binding and displacement, see Li at al. (1996). […] Using cloned FP/293 cells in binding assays (see Li et al. for a method of ligand displacement assay), the specific binding of THG113 to FP protein was investigated.
# [9] = molecular target: T2, human FP receptor; test: Phosphoinositide hydrolysis in FP/293 cells; format: cell-based; conditions: in the presence of 100 nM PGF2α, 30 min
# Description: The phosphoinositides were collected by anion exchange chromatography with 1 M ammonium formate/0.1 N formic acid.
# [10] = molecular target: T2, human FP receptor; test: Displacement of bound [3H]PGF2α in FP/293 whole cell assay; format: binding; conditions: FP/293 cells
# Description: […] Biophys. Acta 28, 251(3):363-369). […] The radioactivity on the filters was counted by scintillation spectrophotometry. For a detailed method of ligand binding and displacement, see Li at al. (1996). […] Using cloned FP/293 cells in binding assays (see Li et al. for a method of ligand displacement assay), the specific binding of THG113 to FP protein was investigated.
# [11] = tested on: SR Ca^2+ ATPase; test: Porcine microvascular contraction to BHQ (intracellular Ca2+ dynamics control); conditions: BHQ 10^−6M; 0.1 mM THG113
# Procedure: as §1
# [12] = tested on: TP, EP1, angiotensin AT1, endothelin receptor, alpha adrenergic receptors; test: Specificity in porcine ocular microvessel contractility assays, agonists of other GPCRs; conditions: 1 μM peptide
# [13] = tested on: myometrial strips; test: Contractility of bovine myometrial strips
# [14] = tested on: myometrial strips; test: Contractility of ovine myometrial strips
# [15] = molecular target: T1, FP receptor; test: Porcine retinal (ocular) microvascular contraction to PGF2α, eyecup assay
# T1 sequence (C6GAG8 1-362): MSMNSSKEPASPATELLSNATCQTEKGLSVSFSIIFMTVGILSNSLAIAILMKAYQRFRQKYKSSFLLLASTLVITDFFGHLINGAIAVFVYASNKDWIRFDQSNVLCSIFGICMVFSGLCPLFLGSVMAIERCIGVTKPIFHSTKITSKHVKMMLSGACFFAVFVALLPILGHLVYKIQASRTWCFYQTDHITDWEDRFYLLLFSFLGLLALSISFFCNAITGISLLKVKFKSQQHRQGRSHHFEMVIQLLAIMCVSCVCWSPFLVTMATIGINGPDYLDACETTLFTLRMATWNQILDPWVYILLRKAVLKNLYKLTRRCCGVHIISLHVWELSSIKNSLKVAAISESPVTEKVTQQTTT
# T2 sequence (P43088 whole entry): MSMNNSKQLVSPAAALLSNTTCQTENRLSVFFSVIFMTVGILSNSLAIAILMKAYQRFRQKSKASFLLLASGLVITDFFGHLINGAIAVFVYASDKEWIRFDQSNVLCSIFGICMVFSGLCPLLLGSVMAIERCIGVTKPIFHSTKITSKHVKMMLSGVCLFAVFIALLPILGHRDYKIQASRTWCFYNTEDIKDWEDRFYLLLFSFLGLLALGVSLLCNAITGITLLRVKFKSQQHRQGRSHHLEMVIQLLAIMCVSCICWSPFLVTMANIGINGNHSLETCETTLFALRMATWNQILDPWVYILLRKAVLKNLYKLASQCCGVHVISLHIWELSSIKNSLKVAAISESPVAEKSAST
smiles,measurement,setting,value
O=C(O)CCC/C=C\C[C@@H]1[C@@H](/C=C/[C@H](O)C2Cc3ccccc3C2)[C@@H](F)C[C@@H]1O [AL8810],activity at FP receptor,[1],weak partial agonist
CC[C@@H](C)[C@@H](N)C(=O)N[C@H](CC(C)C)C(=O)NCC(=O)N[C@H](Cc1c[nH]cn1)C(=O)N[C@H](CCCNC(=N)N)C(=O)N[C@H](CC(=O)O)C(=O)N[C@H](Cc1ccc(O)cc1)C(=O)N[C@H](CCCCN)C(=O)O [Compound 1] (H-[dI][dL]G[dH][dR][dD][dY][dK]-OH; N-terminus and C-terminus assumed),% Inhibition,[2],<1%
same,time until spontaneous and PGF2α (1 μM)-induced contractile responses were diminished,[3]; after addition of 100 μM THG113,≤ 20 min
same,% Inhibition,[4],<1%
same,% Inhibition,[5]; agonist C-PAF 10^−6M,<1%
same,% Inhibition,[5]; agonist C-PAF 10^−7M,<1%
same,contractile response to supra-physiological levels of PGF2α,[6]; 100 μM THG113,failed to produce contractile response
same,selectivity of inhibition among GPCR agonists,"[6]; 0.1 mM THG113, 0.1 μM concentration of the agonists",selective for FP receptor only
same,animals with labor delayed past 15 h after LPS,[7]; alzet pump 1 mg/day,60%
same,mean time of delivery,"[7]; alzet pump 1 mg/day, after LPS",36 h
same,specific binding of [125I]-THG113 to FP/293 cells relative to parent HEK293 cells,[8],27 fold
same,inhibition of PGF2α-stimulated phosphoinositide hydrolysis,[9],dose-dependently inhibited
same,displacement of [3H]PGF2α binding,[10],little displacement
same,% Inhibition,[11],<1%
CC[C@@H](C)[C@@H](N)C(=O)N[C@H](CC(C)C)C(=O)NCC(=O)N[C@H](Cc1c[nH]cn1)C(=O)N[C@H](CCCNC(N)=O)C(=O)N[C@H](CC(=O)O)C(=O)N[C@H](Cc1ccc(O)cc1)C(=O)N[C@H](CCCCN)C(=O)O [Compound 32] (H-[dI][dL]G[dH][dCit][dD][dY][dK]-OH; N-terminus and C-terminus assumed),"vasomotor responses produced by agonists of other GPCRs, including TP and EP1",[12],did not affect the vasomotor responses
same,uterine contractile responses (contraction duration and mean force of contraction),[3]; induced by 1 μM PGF2α,dose-dependent reduction
same,reduction of uterine contractile responses,[13],Reductions of similar magnitude
same,reduction of uterine contractile responses,[14],Reductions of similar magnitude
same,animals delivered within 15 h after LPS administration,[7]; 0.1 mg (osmotic pump),less than 30%
same,animals delivered at 48 h after LPS administration,[7]; 0.4 mg dose,50-60%
same,animals delivered within 15 h after LPS administration,[7]; 0.8 mg (osmotic pump),< 15%
same,animals delivered at 48 h after LPS administration,[7]; 0.8 mg dose,50-60%
same,delay in delivery,"[7]; 0.1, 0.4 or 0.8 mg/Kg/day",dose-dependent delay in delivery
same,selectivity for FP receptor,[15]; 1 μM peptide,selective inhibitor of FP receptor
"N=C(N)NCCC[C@H](NC(=O)[C@@H]1C[C@H](Cc2ccccc2)[C@@H]2CC[C@H](NC(=O)C3CCCCC3)C(=O)N12)C(=O)N[C@@H](CC(=O)O)C(=O)NCCC(c1ccccc1)c1ccccc1.O=C(O)C(F)(F)F [Compound 34, (3S,6S,7S,9S)-2-oxo-3-cyclohexanecarboxamido-7-benzyl-1-azabicyclo[4.3.0]nonane-9-carboxyl-L-argininyl-L-aspartyl-3′,3′-diphenylpropylamide trifluoroacetate]",% Inhibition,"[15]; 100 nM PGF2α, compound at 50 μM",63.2%
"N=C(N)NCCC[C@H](NC(=O)[C@@H]1CC[C@@H]2CC[C@H](NC(=O)Cc3ccccc3)C(=O)N21)C(=O)N[C@@H](Cc1ccccc1)C(=O)O.O=C(O)C(F)(F)F [Compound 46, (3S,6S,9S)-2-oxo-3-phenylacetamido-1-azabicyclo[4.3.0]nonane-9-carboxyl-L-argininyl-L-phenylalanine trifluoroacetate]",% Inhibition,[6],51.1%
"N=C(N)NCCC[C@H](NC(=O)[C@@H]1CC[C@@H]2CC[C@H](NC(=O)Cc3ccccc3)C(=O)N21)C(=O)N[C@H](CC(=O)O)Cc1ccccc1 [Compound 47, (3S,6S,9S)-2-oxo-3-phenylacetamido-1-azabicyclo[4.3.0]nonane-9-carboxyl-L-argininyl-(3′S)-3′-amino-4′-phenylbutanoic acid trifluoroacetate]",IC50,[6],1.6 nM
same,animals delivered within the first 15 h after endotoxin administration,[7]; 0.1 mg/Kg/day osmotic pump,Less than 25%
"N=C(N)NCCC[C@H](NC(=O)[C@@H]1CC[C@@H]2CC[C@H](NC(=O)Cc3ccccc3)C(=O)N21)C(=O)N[C@@H](CCc1ccccc1)CC(=O)O [Compound 48, (3S,6S,9S)-2-oxo-3-phenylacetamido-1-azabicyclo[4.3.0]nonane-9-carboxyl-L-argininyl-(3′S)-3′-amino-5′-phenylpentanoic acid trifluoroacetate]",IC50,[6],3.5 nM
"N=C(N)NCCC[C@H](NC(=O)[C@@H]1CC[C@@H]2CC[C@H](NC(=O)Cc3ccccc3)C(=O)N21)C(=O)N[C@H](CCc1ccccc1)CC(=O)O.O=C(O)C(F)(F)F [Compound 49, (3S,6S,9S)-2-oxo-3-phenylacetamido-1-azabicyclo[4.3.0]nonane-9-carboxyl-L-argininyl-(3′R)-3′-amino-5′-phenylpentanoic acid trifluoroacetate]",% Inhibition,[6],59.5%
"CCCCC[C@H](O)/C=C/[C@@H]1[C@@H](C/C=C\CCCC(=O)O)[C@@H](O)C[C@H]1O [PGF2α, prostaglandin F2α, reference compound]",displacement of [3H]PGF2α binding,[10],completely displaced
O=C(CCc1ccc(O)cc1)c1c(O)cc(O)cc1O [Phloretin],IC50,[1]; antagonist of FP receptor,20000 nM
